From paper PMC4284078 (Virology, 2014) come the findings set out here.

The data set in a line: FTIR spectroscopy secondary structure. The class given is physicochemical. Particulars: 2 mM peptide in deuterated 10 mM phosphate buffer pD 5.6, 25°C, means of four separate determinations, SE ± 5% or better.

On to “Pal-Ahx-Ahx- Arg Cys^S- Arg Phe Arg Val D-Pro Cha His Arg Tyr Arg Cys^S- Arg -CON H2 (disulfide) [HCV6]”, for which the “% Conformation Disordered” value turned out to be 14.40%, the “% Conformation Turn” value is given as 20.39%, the “% Conformation α-Helix” value came to 12.34% and the “% Conformation β-Sheet” value is 52.87%.
For “Cys^S- Ser Phe Arg Val Gly Leu His Glu Tyr Pro Cys^s -CON H2 (disulfide) [HCV3]” the same measures were 12.04%, 21.96%, 11.60% and 54.34%.
For “Arg Cys^S- Arg Phe Arg Val D-Pro Cha His Arg Tyr Arg Cys^s Arg -CON H2 (disulfide) [HCV5]” the same measures were 12.83%, 25.72%, 10.55% and 50.90%.
For “Val Ser Phe Arg Val Gly Leu His Glu Tyr Pro Val -CON H2 [HCV1]” the same measures were 23.74%, 31.05%, 2.10% and 43.11%.
